# Experimental data reported in patent US20260306644A1, “ANTIBODY RECRUITING MOLECULES FOR THE TREATMENT OF CORONAVIRUS DISEASE-19” (priority 2023, published 2026).
# Where “and” joins values, the source holds several entries; their conditions need not be identical. Equal entries are not always repeated. Where two headings read alike, the source gives them in different places. Positions of bridges follow the written chain, without caps; N, C: chain ends.
# What was measured:
# [1] = tested on: Spike RBD coated magnetic beads / RAW 264.7 macrophages; assay: Antibody-dependent cellular phagocytosis (ADCP), RAW 264.7 macrophages and Spike RBD coated magnetic beads, flow cytometry; format: cell-based; settings: 37° C., 2 hours, read-out: SARS-COV-2 ADCP EC50
# Description: The ability of the compounds to mediate antibody-dependent cellular phagocytosis (ADCP) was assessed using RAW 264.7 macrophages and Spike RBD coated magnetic beads (https://www.acrobiosystems.com/P3194-SARS-CoV-2-Spike-RBD-coupled-Magnetic-Beads.html). Spike RBD coated magnetic beads (3 ul per well) were added to each well of a round bottom 96-well plates. RAW264.7 cells (50,000 cells per well) were added to the beads. Next, the compounds were administered to predetermined final concentrations. The cell-bead mixtures were incubated at 37° C. for 2 hours. The mixtures were then analyzed by flow cytometry.
# [2] = tested on: live SARS-CoV-2 Virus (wildtype); assay: Neutralization of live SARS-CoV-2 virus, wildtype (Vero E6 cells, nucleoprotein ELISA); format: cell-based
# SARS-CoV-2 Spike protein = SARS-CoV-2 Spike protein (Severe acute respiratory syndrome coronavirus 2, UniProt P0DTC2); assay: Ternary binding of SARS-CoV-2 Spike protein (293T cells expressing Spike-GFP, IgG-AF647, flow cytometry); format: cell-based; settings: 293T cells expressing Spike-GFP; IgG-AF647 10 μg/ml; repeat values/batches listed separately; read-out: SARS-CoV-2 Ternary binding EC50
# [3] = biological target: T1, SARS-CoV-2 Spike A (wild-type) (Severe acute respiratory syndrome coronavirus 2, UniProt P0DTC2); assay: MSD ACE2 competition assay (inhibition of Spike binding with ACE2, ECL), A (wild-type); settings: IC50 Wild Type, Wild Type Spike
# T1 construct: purchased Meso Scale Diagnostics, LLC V-PLEX SARS-CoV-2 Panel 13 (ACE2) Kit / Panel 23 (ACE2) Kit
# native human IgG1 = assay: Ligand binding to native human IgG1 by Bio-Layer Interferometry (BLI); settings: read-out: Octet Native IgG1 Binding KD
# Description: The binding of exemplary compounds to native human IgG1 was measured by Bio-Layer Interferometry (BLI) using the ForteBio Octet® 96e platform (Fremont, CA). The binding assay was performed using the Protein L (ProL) Dip and Read Biosensors (ForteBio 18-5085) in a 96-well black flat bottom assay plate (Greiner Bio-One 655209; Monroe, NC) with the following steps: (1) 60 seconds of baseline; (2) 600 seconds of loading with 50 μg/ml of Native Human IgG1 (Abcam ab184886; Cambridge, UK); (3) 60 seconds of baseline; (4) 180 seconds of association with a dilution series of ligand in Assay Buffer (PBS (Gibco 10010; Grand Island, New York), 0.1% (w/v) BSA (American Bio AB01088-00100; Canton, MA), 0.05% (v/v) Tween 20 (Fisher BioReagents™ BP337-500; Pittsburgh, PA), pH 7.4), consisting of seven concentrations. The eighth tip in the column was run in Assay Buffer to serve as a reference sensor, the signal of which was subtracted from the sample sensors. (5) 180 seconds of dissociation in Assay Buffer.
# The data was analyzed with the Octet® Data Analysis HT software. The processed data was globally fit to a 1:1 binding model for determination of the equilibrium dissociation constant (KD) and is shown in Table 7.
# [4] = live virus neutralization, isolate Seattle WA (IITRI), Vero E6
Compound,EC50 [1],EC50 ([2]; read-out: Seattle WA (IITRI) EC50) [pM],EC50 (SARS-CoV-2 Spike protein),"EC50 [2, 4] [pM]",IC50 [3],Kd (native human IgG1) [pM]
CC[C@H](C)[C@H](NC(=O)[C@H](CC(C)C)NC(=O)[C@H](CC(=O)O)NC(=O)[C@H](CO)NC(=O)[C@@H](NC(=O)[C@H](CCCNC(=N)N)NC(=O)[C@H](CCSC)NC(=O)[C@H](CO)NC(=O)[C@H](C)NC(=O)[C@H](CCC(=O)O)NC(=O)[C@H](C)NC(=O)[C@H](Cc1c[nH]cn1)NC(=O)CNC(=O)[C@H](CC(C)C)NC(=O)[C@H](CCC(=O)O)NC(=O)[C@H](CC(=O)O)NC(=O)[C@H](CC(C)C)NC(=O)[C@H](CC(C)C)NC(=O)[C@H](CCCNC(=N)N)NC(=O)[C@H](CCSC)NC(=O)[C@@H](NC(=O)[C@H](CCC(=O)O)NC(=O)[C@H](Cc1ccc(O)cc1)NC(=O)[C@@H](NC(=O)[C@H](CCCCN)NC(=O)[C@H](CCC(N)=O)NC(=O)[C@H](CC(C)C)NC(=O)[C@@H](NC(=O)[C@H](Cc1c[nH]c2ccccc12)NC(=O)[C@H](CCC(=O)O)NC(=O)[C@H](CCCCN)NC(=O)[C@H](CC(=O)O)NC(=O)CCOCCOCCOCCOCCOCCOCCOCCOCCNC(=O)CCOCCOCCOCCOCCOCCOCCOCCOCCC(=O)N[C@@H](CC(=O)O)C(=O)N[C@H]1CSSC[C@@H](C(=O)N[C@H](C(N)=O)[C@@H](C)O)NC(=O)[C@H](Cc2c[nH]c3ccccc23)NC(=O)[C@H](C(C)C)NC(=O)[C@H](CC(C)C)NC(=O)[C@H](CCC(=O)O)NC(=O)CNC(=O)[C@H](CC(C)C)NC(=O)[C@H](Cc2c[nH]cn2)NC(=O)[C@H](Cc2c[nH]c3ccccc23)NC(=O)[C@H](C)NC1=O)[C@@H](C)CC)[C@@H](C)CC)[C@@H](C)CC)C(C)C)C(=O)N[C@@H](Cc1ccc(O)cc1)C(=O)N[C@@H](CCC(=O)O)C(=O)N[C@@H](Cc1ccccc1)C(=O)N[C@@H](CCSC)C(=O)N[C@@H](CCCCN)C(=O)N[C@@H](CCCCN)C(=O)NCC(=O)N[C@@H](CC(=O)O)C(=O)N[C@@H](CCC(=O)O)C(=O)N[C@@H](CCCNC(=N)N)C(=O)N[C@@H](CC(C)C)C(=O)N[C@@H](CC(C)C)C(=O)N[C@@H](CCC(=O)O)C(=O)N[C@@H](CCC(=O)O)C(=O)N[C@@H](C)C(=O)N[C@@H](CCC(=O)O)C(=O)N[C@@H](CCCNC(=N)N)C(=O)N[C@@H](CC(C)C)C(=O)N[C@@H](CC(C)C)C(=O)N[C@@H](CCC(=O)O)C(=O)N[C@@H](CCC(=O)O)C(=O)N[C@H](C(=O)N[C@@H](CCC(=O)O)C(=O)N[C@@H](CCCNC(=N)N)C(N)=O)C(C)C [Compound 128],45 pM and 52 pM,42,,,,
Ac-DCAWHLGELVWCTDKEWILQKIYEIMRLLDELGHAEASMRVSDLIYEFMKKGDERLLEEAERLLEEVER (disulfide 2-12) [Compound 120],1900 pM and 1800 pM,,330 pM and 310 pM,1,< 10000 pM and 1570 pM,
Ac-DKEWILQKIYEIMRLLDELGHAEASMRVSDLIYEFMKKGDERLLEEAERLLEEVERDCAWHLGELVWCT (disulfide 58-68) [Compound 110],1500 pM and 1200 pM,,140 pM and 130 pM,5.8,< 10000 pM,
Ac-DKEWILQKIYEIMRLLDELGHAEASMRVSDLIYEFMKKGPASPASPASPASDCAWHLGELVWCT (disulfide 53-63) [Compound 167],110 pM,,240 pM,,10800 pM,< 1000
